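These data come from cells grown in 96-well plates and exposed to compound for 48 hours at five concentrations. At the TGI there is no net growth.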
What was measured:
Experiment in all cases: NCI-60 cell line screen, 48 h
MALME-3M melanoma = system: MALME-3M melanoma
SK-MEL-5 melanoma = system: SK-MEL-5 melanoma
SF-539 CNS = system: SF-539 CNS
SF-295 CNS = system: SF-295 CNS
HL-60(TB) leukemia = system: HL-60(TB) leukemia
COLO 205 colon = system: COLO 205 colon
HCT-15 colon = system: HCT-15 colon
MDA-MB-435 = system: MDA-MB-435
MDA-N = system: MDA-N
SNB-75 CNS = system: SNB-75 CNS
RXF 393 renal = system: RXF 393 renal
HCC-2998 colon = system: HCC-2998 colon
K-562 leukemia = system: K-562 leukemia
KM12 colon = system: KM12 colon
M14 melanoma = system: M14 melanoma
OVCAR-3 ovarian = system: OVCAR-3 ovarian
SK-MEL-2 melanoma = system: SK-MEL-2 melanoma
MCF7 breast = system: MCF7 breast
HCT-116 colon = system: HCT-116 colon
SK-MEL-28 melanoma = system: SK-MEL-28 melanoma
NCI-H226 lung = system: NCI-H226 lung
NCI-H23 lung = system: NCI-H23 lung
HT29 colon = system: HT29 colon
NCI-H522 lung = system: NCI-H522 lung
PC-3 prostate = system: PC-3 prostate
CAKI-1 renal = system: CAKI-1 renal
HS 578T breast = system: HS 578T breast
OVCAR-5 ovarian = system: OVCAR-5 ovarian
786-0 renal = system: 786-0 renal
EKVX NSCLC = system: EKVX NSCLC
ACHN renal = system: ACHN renal
IGROV1 ovarian = system: IGROV1 ovarian
DU-145 prostate = system: DU-145 prostate
HOP-92 NSCLC = system: HOP-92 NSCLC
SN12C renal = system: SN12C renal
UACC-257 melanoma = system: UACC-257 melanoma
SR leukemia = system: SR leukemia
SF-268 CNS = system: SF-268 CNS
UO-31 renal = system: UO-31 renal
UACC-62 melanoma = system: UACC-62 melanoma
SK-OV-3 ovarian = system: SK-OV-3 ovarian
LOX IMVI melanoma = system: LOX IMVI melanoma
A549 NSCLC = system: A549 NSCLC
A498 renal = system: A498 renal
BT-549 breast = system: BT-549 breast
CCRF-CEM leukemia = system: CCRF-CEM leukemia
T-47D breast = system: T-47D breast
SNB-19 CNS = system: SNB-19 CNS
NCI/ADR-RES ovarian = system: NCI/ADR-RES ovarian
SW-620 colon = system: SW-620 colon
MOLT-4 leukemia = system: MOLT-4 leukemia
U251 CNS = system: U251 CNS
HOP-62 NSCLC = system: HOP-62 NSCLC
RPMI-8226 leukemia = system: RPMI-8226 leukemia
NCI-H460 lung = system: NCI-H460 lung
TK-10 renal = system: TK-10 renal
OVCAR-8 ovarian = system: OVCAR-8 ovarian
OVCAR-4 ovarian = system: OVCAR-4 ovarian

With CN(C)c1ccc(C2C(Cl)C(=O)N2NC(=O)c2c(Cl)c(Cl)c(Cl)c(Cl)c2-c2nc3ccccc3[nH]2)cc1 (stereo unspecified) the TGI (MALME-3M melanoma) was 36.3 µM, the TGI (SK-MEL-5 melanoma) was 48.6 µM and the TGI (SF-539 CNS) was 57.4 µM. For the same compound, the TGI (SF-295 CNS) was over 100 µM, the TGI (HL-60(TB) leukemia) was 28.8 µM and the TGI (COLO 205 colon) was 66.1 µM. It also gave a TGI (HCT-15 colon) of 32.6 µM, a TGI (MDA-MB-435) of over 100 µM and a TGI (MDA-N) of 55.8 µM. For the same compound, the TGI (SNB-75 CNS) was 44.3 µM, the TGI (RXF 393 renal) was 8.96 µM and the TGI (HCC-2998 colon) was 30.2 µM. It also gave a TGI (K-562 leukemia) of over 100 µM, a TGI (KM12 colon) of 48.4 µM and a TGI (M14 melanoma) of 51.7 µM. For the same compound, the TGI (OVCAR-3 ovarian) was 44.7 µM, the TGI (SK-MEL-2 melanoma) was 86.7 µM and the TGI (MCF7 breast) was 23.1 µM. For the same compound, the TGI (HCT-116 colon) was 23.9 µM, the TGI (SK-MEL-28 melanoma) was over 100 µM and the TGI (NCI-H226 lung) was 69.7 µM. The TGI (NCI-H23 lung) was 29.7 µM, the TGI (HT29 colon) was 68.9 µM and the TGI (NCI-H522 lung) was 11.9 µM. The TGI (PC-3 prostate) was 50.9 µM, the TGI (CAKI-1 renal) was 41.1 µM and the TGI (HS 578T breast) was over 100 µM. It also gave a TGI (OVCAR-5 ovarian) of over 100 µM, a TGI (786-0 renal) of 6.2 µM and a TGI (EKVX NSCLC) of 67.4 µM. For the same compound, the TGI (ACHN renal) was 34.6 µM, the TGI (IGROV1 ovarian) was 17.2 µM and the TGI (DU-145 prostate) was 22.5 µM. For the same compound, the TGI (HOP-92 NSCLC) was 23.9 µM, the TGI (SN12C renal) was 38.4 µM and the TGI (UACC-257 melanoma) was 44.6 µM. The TGI (SR leukemia) was over 100 µM, the TGI (SF-268 CNS) was 43.5 µM and the TGI (UO-31 renal) was 78.5 µM. The TGI (UACC-62 melanoma) was 37.5 µM, the TGI (SK-OV-3 ovarian) was over 100 µM and the TGI (LOX IMVI melanoma) was 30 µM. The TGI (A549 NSCLC) was over 100 µM, the TGI (A498 renal) was 40.2 µM and the TGI (BT-549 breast) was 33.2 µM. It also gave a TGI (CCRF-CEM leukemia) of over 100 µM, a TGI (T-47D breast) of 25.2 µM and a TGI (SNB-19 CNS) of 94.3 µM. It also gave a TGI (NCI/ADR-RES ovarian) of over 100 µM, a TGI (SW-620 colon) of over 100 µM and a TGI (MOLT-4 leukemia) of over 100 µM.

In the case of CCOC(=O)CCC(C(=O)OCC)n1nc2ccc(Nc3c(C)[n+]([O-])c4ccc(Cl)cc4[n+]3[O-])cc2n1 (stereo unspecified), the TGI (MALME-3M melanoma) is reported as over 100 µM, the TGI (SK-MEL-5 melanoma) is reported as 76.2 µM and the TGI (SF-539 CNS) is reported as 43.9 µM. The TGI (SF-295 CNS) was 39.1 µM, the TGI (HL-60(TB) leukemia) was over 100 µM and the TGI (COLO 205 colon) was over 100 µM. For the same compound, the TGI (HCT-15 colon) was over 100 µM, the TGI (U251 CNS) was 39.1 µM and the TGI (MDA-MB-435) was over 100 µM. For the same compound, the TGI (MDA-N) was over 100 µM, the TGI (RXF 393 renal) was 27.3 µM and the TGI (HCC-2998 colon) was 28 µM. It also gave a TGI (K-562 leukemia) of over 100 µM, a TGI (KM12 colon) of over 100 µM and a TGI (M14 melanoma) of over 100 µM. For the same compound, the TGI (OVCAR-3 ovarian) was over 100 µM, the TGI (SK-MEL-2 melanoma) was 61 µM and the TGI (MCF7 breast) was 65.8 µM. It also gave a TGI (HCT-116 colon) of 57.7 µM, a TGI (HOP-62 NSCLC) of 40.4 µM and a TGI (NCI-H226 lung) of 51.5 µM. For the same compound, the TGI (NCI-H23 lung) was 53.4 µM, the TGI (HT29 colon) was over 100 µM and the TGI (NCI-H522 lung) was over 100 µM. The TGI (PC-3 prostate) was over 100 µM, the TGI (CAKI-1 renal) was over 100 µM and the TGI (HS 578T breast) was 58.3 µM. For the same compound, the TGI (OVCAR-5 ovarian) was over 100 µM, the TGI (786-0 renal) was 33.8 µM and the TGI (EKVX NSCLC) was 41.1 µM. The TGI (RPMI-8226 leukemia) was over 100 µM, the TGI (ACHN renal) was 31.9 µM and the TGI (NCI-H460 lung) was 33.6 µM. For the same compound, the TGI (IGROV1 ovarian) was over 100 µM, the TGI (DU-145 prostate) was 60.9 µM and the TGI (HOP-92 NSCLC) was 71.4 µM. It also gave a TGI (SN12C renal) of 48.4 µM, a TGI (UACC-257 melanoma) of 70.8 µM and a TGI (SR leukemia) of over 100 µM. For the same compound, the TGI (SF-268 CNS) was 36.3 µM, the TGI (UO-31 renal) was 35.6 µM and the TGI (TK-10 renal) was over 100 µM. The TGI (UACC-62 melanoma) was over 100 µM, the TGI (OVCAR-8 ovarian) was 65.7 µM and the TGI (SK-OV-3 ovarian) was 46.8 µM. For the same compound, the TGI (LOX IMVI melanoma) was 30 µM, the TGI (OVCAR-4 ovarian) was over 100 µM and the TGI (A549 NSCLC) was 45.8 µM. For the same compound, the TGI (A498 renal) was 56.3 µM, the TGI (BT-549 breast) was over 100 µM and the TGI (CCRF-CEM leukemia) was over 100 µM. It also gave a TGI (T-47D breast) of 55.2 µM, a TGI (SNB-19 CNS) of 95.9 µM and a TGI (NCI/ADR-RES ovarian) of 48 µM. The TGI (SW-620 colon) was over 100 µM and the TGI (MOLT-4 leukemia) was over 100 µM.

Cc1ccc(S(=O)(=O)N/N=C2/C3CCC(C3)C2c2ccccc2)cc1 (stereo unspecified) was tested, and the TGI (MALME-3M melanoma) was over 100 µM, the TGI (SK-MEL-5 melanoma) was over 100 µM and the TGI (SF-295 CNS) was over 100 µM. For the same compound, the TGI (HL-60(TB) leukemia) was over 100 µM, the TGI (COLO 205 colon) was over 100 µM and the TGI (HCT-15 colon) was over 100 µM. The TGI (U251 CNS) was over 100 µM, the TGI (MDA-MB-435) was over 100 µM and the TGI (MDA-N) was over 100 µM. The TGI (SNB-75 CNS) was over 100 µM, the TGI (K-562 leukemia) was over 100 µM and the TGI (KM12 colon) was over 100 µM. It also gave a TGI (M14 melanoma) of over 100 µM, a TGI (OVCAR-3 ovarian) of over 100 µM and a TGI (SK-MEL-2 melanoma) of over 100 µM. For the same compound, the TGI (MCF7 breast) was over 100 µM, the TGI (HCT-116 colon) was over 100 µM and the TGI (HOP-62 NSCLC) was over 100 µM. The TGI (SK-MEL-28 melanoma) was over 100 µM, the TGI (NCI-H226 lung) was over 100 µM and the TGI (NCI-H23 lung) was over 100 µM. The TGI (HT29 colon) was over 100 µM, the TGI (NCI-H522 lung) was over 100 µM and the TGI (PC-3 prostate) was over 100 µM. It also gave a TGI (CAKI-1 renal) of over 100 µM, a TGI (HS 578T breast) of over 100 µM and a TGI (OVCAR-5 ovarian) of over 100 µM. For the same compound, the TGI (786-0 renal) was over 100 µM, the TGI (EKVX NSCLC) was over 100 µM and the TGI (RPMI-8226 leukemia) was over 100 µM. For the same compound, the TGI (ACHN renal) was over 100 µM, the TGI (NCI-H460 lung) was over 100 µM and the TGI (IGROV1 ovarian) was over 100 µM. It also gave a TGI (DU-145 prostate) of over 100 µM, a TGI (HOP-92 NSCLC) of over 100 µM and a TGI (SN12C renal) of over 100 µM. The TGI (UACC-257 melanoma) was over 100 µM, the TGI (SR leukemia) was over 100 µM and the TGI (SF-268 CNS) was over 100 µM. For the same compound, the TGI (UO-31 renal) was over 100 µM, the TGI (TK-10 renal) was over 100 µM and the TGI (UACC-62 melanoma) was over 100 µM. The TGI (OVCAR-8 ovarian) was over 100 µM, the TGI (SK-OV-3 ovarian) was over 100 µM and the TGI (LOX IMVI melanoma) was over 100 µM. The TGI (OVCAR-4 ovarian) was over 100 µM, the TGI (A549 NSCLC) was over 100 µM and the TGI (BT-549 breast) was over 100 µM. It also gave a TGI (CCRF-CEM leukemia) of over 100 µM, a TGI (T-47D breast) of over 100 µM and a TGI (SNB-19 CNS) of over 100 µM. The TGI (NCI/ADR-RES ovarian) was over 100 µM, the TGI (SW-620 colon) was over 100 µM and the TGI (MOLT-4 leukemia) was over 100 µM.

— PubChem BioAssay (NCI)
